These results are taken from paper PMC6476926, “Dichloro-Phenyl-Benzotriazoles: A New Selective Class of Human Respiratory Syncytial Virus Entry Inhibitors” (Frontiers in Chemistry, 2019).

In one series the test system is HIV-1IIIB. The series is described as follows: microbe, parasite or virus in culture. It is filed as cell-based, Human Immunodeficiency Virus type-1 (HIV-1). Conditions: Human immunodeficiency virus 1, MT4, read-out: EC50 HIV-1IIIB.
The nature of series [1]: Cytotoxicity, MTT method, Vero-76 cells. The conditions noted are these: African green monkey (Cercopithecus aethiops).
A short description of series [2]: Cytotoxicity, MTT method, BHK cells. Conditions: Syrian hamster (Mesocricetus auratus).
The next series relates to Sb-1, VSV, VV, HSV-1. Put plainly: organism not typed. It is filed as cell-based. Conditions: Vero 76, read-out: EC50 Sb-1, VSV, VV, HSV-1.
The next series has as its system Reo-1. The series is described as follows: microbe, parasite or virus in culture. It is filed as cell-based, Reovirus type-1 (Reo-1). Conditions: Reovirus sp., BHK, read-out: EC50 Reo-1.
Another series concerns RSV. Put plainly: microbe, parasite or virus in culture. The conditions noted are these: human respiratory syncytial virus, Vero 76, read-out: EC50 RSV. Format: cell-based, Human Respiratory Syncytial Virus (RSV) strain A2.
The test system of another series is CV-B5. The series is described as follows: microbe, parasite or virus in culture. It is filed as cell-based, Human Enterovirus B [coxsackie type B5 (CV-B5)]. Conditions: Enterovirus B, CVB5, Vero 76, read-out: EC50 CV-B5.
Another series can be described thus: in vitro. The conditions noted are these: cattle (Bos taurus).
Series [3] can be described thus: Cytotoxicity, MTT method, MT-4 cells. Conditions: human.
The next series deals with YFV. The series is described as follows: microbe, parasite or virus in culture. It is filed as cell-based. The conditions noted are these: Yellow fever virus, BHK, read-out: EC50 YFV.
For another series, the system named is BVDV. The series is described as follows: microbe, parasite or virus in culture. It is filed as cell-based. The conditions noted are these: Bovine viral diarrhea virus isolates and strains, MDBK, read-out: EC50 BVDV.

`CCCC(=O)Nc1ccc(-n2nnc3cc(Cl)c(Cl)cc32)cc1` [5c, N-[4-(5,6-dichloro-1H-benzo[d][1,2,3]triazol-1-yl)phenyl]butanamide] registered a melting point of 202 to 204 °C. In addition, in the series with HIV-1IIIB, the 50% effective concentration (EC50) was above 60 µM. In [1], the CC50 at 5 days is 10 µM. In series [2], this compound had a CC50 above 100 µM. In addition, in the series with Sb-1, VSV, VV, HSV-1, the EC50 is above 100 µM. Moreover, the EC50 with Reo-1 was above 100 µM. In addition, in the series with RSV, the EC50 was determined as 4 µM. The EC50 in the series with CV-B5 turned out to be 9 µM. The CC50 in the series “in vitro” is above 100 µM. This compound yielded a CC50 in series [3] of 60 µM. The concentration for a half-maximal effect (EC50) in the series on YFV is above 100 µM. Besides, the EC50 with BVDV is above 100 µM.
`CCC(=O)N(C(=O)CC)c1ccc(-n2nc3cc(Cl)c(Cl)cc3n2)cc1` [6e, N-propionyl-N-[4-(5,6-dichloro-2H-benzo[d][1,2,3]triazol-2-yl)phenyl] propionamide] showed a melting point of 238 to 240 °C. In addition, the EC50 in the series on HIV-1IIIB is above 15 µM. Also, in [1], the CC50 at 5 days is above 100 µM. This compound registered a CC50 in series [2] of 26 µM. Besides, the EC50 in the series with Sb-1, VSV, VV, HSV-1 is above 100 µM. In addition, the EC50 in the series on Reo-1 was above 26 µM. For the same compound, in the series on RSV, the EC50 is 6 µM. The 50% effective concentration (EC50) with CV-B5 came to 61 µM. The CC50 in “in vitro” came out at 72 µM. In addition, the CC50 in [3] was 15 µM. For the same compound, the half-maximal effective concentration (EC50) in the series with YFV was above 26 µM. The EC50 with BVDV was above 72 µM.
In turn, `Cc1ccc(C(=O)Nc2ccc(-n3nnc4cc(Cl)c(Cl)cc43)cc2)cc1` [7b, N-[4-(5,6-dichloro-1H-benzo[d][1,2,3]triazol-1-yl)phenyl]-4-methylbenzamide] displayed a melting point of 226 to 228 °C. Also, the EC50 in the series on HIV-1IIIB is above 100 µM. This compound had a CC50 at 5 days in series [1] above 100 µM. In addition, the CC50 in series [2] was above 100 µM. The EC50 with Sb-1, VSV, VV, HSV-1 is above 100 µM. Besides, the concentration for a half-maximal effect (EC50) with Reo-1 was above 100 µM. In addition, the concentration for a half-maximal effect (EC50) in the series with RSV was above 100 µM. Further, the EC50 in the series on CV-B5 was above 100 µM. In addition, the CC50 in “in vitro” is above 100 µM. In addition, in series [3], the CC50 was above 100 µM. Moreover, the EC50 in the series with YFV is above 100 µM. The 50% effective concentration (EC50) in the series with BVDV is above 100 µM.
Regarding `O=C(Nc1ccccc1)Nc1ccc(-n2nc3cc(Cl)c(Cl)cc3n2)cc1` [10e, 1-[4-(5,6-dichloro-2H-benzo[d][1,2,3]triazol-2-yl)phenyl]-3-phenylurea], the melting point is above 290 °C. Moreover, the EC50 in the series with HIV-1IIIB is above 100 µM. This compound also came in with a CC50 at 5 days in series [1] above 100 µM. Besides, the CC50 in series [2] is above 100 µM. Moreover, the 50% effective concentration (EC50) with Sb-1, VSV, VV, HSV-1 is above 100 µM. Further, the half-maximal effective concentration (EC50) in the series on Reo-1 was above 100 µM. In addition, the 50% effective concentration (EC50) in the series on RSV is above 100 µM. Besides, the EC50 in the series with CV-B5 is above 100 µM. For the same compound, the CC50 in the series “in vitro” is above 100 µM. Besides, the CC50 in [3] is above 100 µM. Further, the EC50 with YFV was above 100 µM. Besides, the 50% effective concentration (EC50) with BVDV is above 100 µM.
The compound `O=C(Nc1ccc(-n2nc3cc(Cl)c(Cl)cc3n2)cc1)c1ccc(C(F)(F)F)cc1` [8g, N-[4-(5,6-dichloro-2H-benzo[d][1,2,3]triazol-2-yl)phenyl]-4-(trifluoromethyl)benzamide] showed a melting point of 210 to 212 °C. Further, in the series with HIV-1IIIB, the EC50 is above 100 µM. Besides, the CC50 at 5 days in series [1] was above 100 µM. This compound also came in with a CC50 in series [2] above 100 µM. Besides, the 50% effective concentration (EC50) in the series on Sb-1, VSV, VV, HSV-1 is above 100 µM. In the series on Reo-1, the concentration for a half-maximal effect (EC50) is above 100 µM. Moreover, the 50% effective concentration (EC50) with RSV is 50 µM. In addition, the EC50 with CV-B5 is above 100 µM. The CC50 in the series “in vitro” is above 100 µM. For the same compound, in series [3], the CC50 is above 100 µM. Also, in the series with YFV, the EC50 is above 100 µM. Moreover, in the series with BVDV, the EC50 stood at 28 µM.
`O=C(Nc1ccc(-n2nnc3cc(Cl)c(Cl)cc32)cc1)c1ccccc1` [7a, N-[4-(5,6-dichloro-1H-benzo[d][1,2,3]triazol-1-yl)phenil]benzamide]: the melting point lay within 250 to 252 °C. The half-maximal effective concentration (EC50) in the series on HIV-1IIIB is above 100 µM. Further, the CC50 at 5 days in series [1] is above 100 µM. The compound also gave a CC50 in series [2] of 44 µM. Further, in the series with Sb-1, VSV, VV, HSV-1, the EC50 was above 100 µM. Further, the EC50 with Reo-1 was above 44 µM. The 50% effective concentration (EC50) in the series with RSV came out at 60 µM. In the series on CV-B5, the EC50 was above 100 µM. In addition, the CC50 in “in vitro” was above 100 µM. The CC50 in series [3] is above 100 µM. Also, the EC50 with YFV is above 44 µM. For the same compound, in the series on BVDV, the concentration giving a half-maximal response (EC50) was above 100 µM.
For the compound `CCCC(=O)N(C(=O)CCC)c1ccc(-n2nc3cc(Cl)c(Cl)cc3n2)cc1` [6f, N-butyryl-N-[4-(5,6-dichloro-2H-benzo[d][1,2,3]triazol-2-yl)phenyl] butyramide], the melting point is 130 to 133 °C. Further, the EC50 in the series with HIV-1IIIB was above 24 µM. Moreover, the CC50 at 5 days in series [1] is above 100 µM. Besides, the CC50 in [2] was 62 µM. For the same compound, the EC50 in the series on Sb-1, VSV, VV, HSV-1 is above 100 µM. Further, the 50% effective concentration (EC50) in the series with Reo-1 is above 26 µM. In addition, the EC50 in the series on RSV was found to be 6 µM. Further, the EC50 with CV-B5 stood at 33 µM. Also, in “in vitro”, the CC50 was 84 µM. In series [3], this compound returned a CC50 of 24 µM. The EC50 in the series with YFV was above 62 µM. In the series on BVDV, the half-maximal effective concentration (EC50) is above 84 µM.
For the compound `CC(=O)Nc1ccc(-n2nnc3cc(Cl)c(Cl)cc32)cc1` [5a, N-[4-(5,6-dichloro-1H-benzo[d][1,2,3]triazol-1-yl)phenyl]acetamide], the melting point fell in the range of 209 to 211 °C. Further, the EC50 in the series with HIV-1IIIB was above 35 µM. Moreover, the CC50 at 5 days in [1] was 30 µM. Also, the CC50 in [2] was found to be 53 µM. Further, the EC50 in the series with Sb-1, VSV, VV, HSV-1 was above 30 µM. Also, the EC50 in the series with Reo-1 was above 53 µM. Also, the EC50 with RSV worked out at 3 µM. The EC50 in the series on CV-B5 is 17 µM. In addition, the CC50 in the series “in vitro” is 43 µM. Moreover, in [3], the CC50 was determined as 35 µM. The 50% effective concentration (EC50) with YFV was above 53 µM. In the series with BVDV, the EC50 is above 43 µM.
`O=C(Nc1ccc(-n2nc3cc(Cl)c(Cl)cc3n2)cc1)c1ccc(Cl)cc1` [8f, N-[4-(5,6-dichloro-2H-benzo[d][1,2,3]triazol-2-yl)PHENYL] 4-chlorobenzamide] returned a melting point of 268 to 270 °C. Further, the half-maximal effective concentration (EC50) in the series on HIV-1IIIB is above 100 µM. This compound also displayed a CC50 at 5 days in series [1] of 80 µM. In series [2], this compound had a CC50 above 100 µM. Moreover, the EC50 in the series with Sb-1, VSV, VV, HSV-1 was above 100 µM. In the series with Reo-1, the EC50 was above 100 µM. In the series on RSV, the EC50 was found to be 20 µM. Further, in the series with CV-B5, the EC50 was above 100 µM. The compound also yielded a CC50 in the series “in vitro” above 100 µM. Also, the CC50 in [3] was above 100 µM. Besides, the concentration for a half-maximal effect (EC50) in the series with YFV was above 100 µM. The EC50 in the series on BVDV amounted to 60 µM.
In turn, `N#Cc1ccc(C(=O)Nc2ccc(-n3nnc4cc(Cl)c(Cl)cc43)cc2)cc1` [7h, N-[4-(5,6-dichloro-1H-benzo[d][1,2,3]triazol-1-yl)phenyl] 4-cyanobenzamide] yielded a melting point of 227 to 229 °C. Also, the EC50 in the series with HIV-1IIIB is above 100 µM. This compound returned a CC50 at 5 days in [1] above 100 µM. Besides, the CC50 in [2] was above 100 µM. Also, the 50% effective concentration (EC50) with Sb-1, VSV, VV, HSV-1 is above 100 µM. Moreover, in the series with Reo-1, the EC50 was above 100 µM. Moreover, the EC50 with RSV was 11 µM. Besides, in the series with CV-B5, the EC50 is above 100 µM. This compound also displayed a CC50 in the series “in vitro” above 100 µM. The compound further gave a CC50 in series [3] above 100 µM. Moreover, the EC50 in the series on YFV is above 100 µM. For the same compound, in the series with BVDV, the EC50 is above 100 µM.
`COc1ccc(C(=O)Nc2ccc(-n3nnc4cc(Cl)c(Cl)cc43)cc2)cc1` [7c, N-[4-(5,6-dichloro-1H-benzo[d][1,2,3]triazol-1-yl)phenyl]-4-methoxybenzamide] returned a melting point of 193 to 195 °C. In addition, the EC50 in the series with HIV-1IIIB is above 33 µM. Also, the CC50 at 5 days in [1] was above 100 µM. This compound gave a CC50 in [2] above 100 µM. Besides, in the series on Sb-1, VSV, VV, HSV-1, the 50% effective concentration (EC50) was above 100 µM. The concentration for a half-maximal effect (EC50) in the series with Reo-1 was above 100 µM. Also, the EC50 with RSV stood at 35 µM. Moreover, the EC50 with CV-B5 is above 100 µM. The compound further had a CC50 in the series “in vitro” above 100 µM. The compound also came in with a CC50 in series [3] of 33 µM. For the same compound, the EC50 in the series with YFV was above 100 µM. The EC50 with BVDV is above 100 µM.
